In PubChem BioAssay AID248 (DTP/NCI, 2004):
Toxic doses and inconclusive results are not listed. Cut-off read from the data, not from the text of the source: active = T/C of 150% or more; inactive = T/C below 125%.

Tested on: L1210 leukemia ip in BDF1 mice, survival T/C
Assay: NCI In Vivo Anticancer Drug Screen. Data for tumor model L1210 Leukemia (intraperitoneal) in B6D2F1 (BDF1) mice
Conditions: endpoint: mean survival time, higher = longer survival
How it was run: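 Tumor cells were implanted, animals were treated, and survival was followed. The result divides the treated measurement by the vehicle-control measurement.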

[1] = dose: 100.0 mg/kg/injection, schedule: Q04DX003 (ip), vehicle: saline with Tween-80
[2] = dose: 200.0 mg/kg/injection, schedule: Q04DX003 (ip), vehicle: saline with Tween-80
[3] = dose: 400.0 mg/kg/injection, schedule: Q04DX003 (ip), vehicle: saline with Tween-80

Measured: T/C

NC(CSS(=O)(=O)O)=NC1CCCCC1
inactive: dose: 6.25 mg/kg/injection, schedule: Q04DX002 (ip), vehicle: saline with Tween-80 120 % of control | dose: 12.5 mg/kg/injection, schedule: Q04DX002 (ip), vehicle: saline with Tween-80 113 % of control | dose: 25.0 mg/kg/injection, schedule: Q04DX002 (ip), vehicle: saline with Tween-80 98 % of control

O=P1(CCc2ccc(Cl)cc2)CC(Br)C(Br)C1 (stereo unspecified)
inactive: dose: 100.0 mg/kg/injection, schedule: Q04DX003 (ip), vehicle: other 93 % of control | dose: 200.0 mg/kg/injection, schedule: Q04DX003 (ip), vehicle: other 95 % of control | dose: 400.0 mg/kg/injection, schedule: Q04DX003 (ip), vehicle: other 98 % of control

O=C(Nc1ccccc1C(F)(F)F)c1ccccc1Cl
inactive: dose: 100.0 mg/kg/injection, schedule: Q01DX009 (ip), vehicle: acetone 98 % of control | dose: 200.0 mg/kg/injection, schedule: Q01DX009 (ip), vehicle: acetone 93 % of control | dose: 400.0 mg/kg/injection, schedule: Q01DX009 (ip), vehicle: acetone 93 % of control

CCN(CC)C(=O)C(Cc1ccc(OC)c(OC)c1)C(Cc1ccc(OC)c(OC)c1)C(=O)O (stereo unspecified)
inactive: [1] 114 % of control | [2] 102 % of control | [3] 105 % of control

COc1cccc(C2NC(=O)CCC2[N+](=O)[O-])c1OC (stereo unspecified)
inactive: dose: 100.0 mg/kg/injection, schedule: Q04DX002 (ip), vehicle: saline with Tween-80 105 % of control | dose: 200.0 mg/kg/injection, schedule: Q04DX002 (ip), vehicle: saline with Tween-80 102 % of control | dose: 400.0 mg/kg/injection, schedule: Q04DX002 (ip), vehicle: saline with Tween-80 94 % of control

O=[N+]([O-])c1ccc(OCCCOc2ccccc2)cc1
inactive: dose: 100.0 mg/kg/injection, schedule: Q01DX009 (ip), vehicle: Klucel (hydroxypropylcellulose) (HPC) 112 % of control | dose: 100.0 mg/kg/injection, schedule: Q04DX003 (ip), vehicle: Klucel (hydroxypropylcellulose) (HPC) 97 % of control | dose: 200.0 mg/kg/injection, schedule: Q01DX009 (ip), vehicle: Klucel (hydroxypropylcellulose) (HPC) 101 % of control | dose: 200.0 mg/kg/injection, schedule: Q04DX003 (ip), vehicle: Klucel (hydroxypropylcellulose) (HPC) 103 % of control | dose: 400.0 mg/kg/injection, schedule: Q01DX009 (ip), vehicle: Klucel (hydroxypropylcellulose) (HPC) 98 % of control | dose: 400.0 mg/kg/injection, schedule: Q04DX003 (ip), vehicle: Klucel (hydroxypropylcellulose) (HPC) 100 % of control

O=C(CCC(=O)c1ccccc1)OCc1ccccc1
inactive: dose: 100.0 mg/kg/injection, schedule: Q04DX002 (ip), vehicle: Klucel (hydroxypropylcellulose) (HPC) 96 % of control | dose: 200.0 mg/kg/injection, schedule: Q04DX002 (ip), vehicle: Klucel (hydroxypropylcellulose) (HPC) 86 % of control

O=c1cc(O)ccn1CCc1cccs1
inactive: dose: 100.0 mg/kg/injection, schedule: Q01DX009 (ip), vehicle: saline with Tween-80 94 % of control | [1] 91 % of control | dose: 200.0 mg/kg/injection, schedule: Q01DX009 (ip), vehicle: saline with Tween-80 96 % of control | [2] 98 % of control | [3] 90 % of control

CCNC(=O)C1C2CC3OC(=O)C1C3C2 (stereo unspecified)
inactive: [1] 90 % of control | [2] 95 % of control | [3] 95 % of control

CCOC(=O)C(Cc1ccc(O)c([N+](=O)[O-])c1)N1C(=O)c2ccccc2C1=O (stereo unspecified)
inactive: dose: 100.0 mg/kg/injection, schedule: Q01DX001 (ip), vehicle: saline 107 % of control | dose: 200.0 mg/kg/injection, schedule: Q01DX001 (ip), vehicle: saline 92 % of control | dose: 400.0 mg/kg/injection, schedule: Q01DX001 (ip), vehicle: saline 95 % of control

OC(CC1=NNC(=S)NC1)(C(F)(F)F)C(F)(F)F
inactive: [1] 95 % of control | [2] 87 % of control
